Results on one compound are retold here after PMC9081329, “Pharmacokinetics, Mass Balance, Excretion, and Tissue Distribution of Plasmalogen Precursor PPI-1011” (Frontiers in Cell and Developmental Biology, 2022).

Details of data set [1]: method as in manuscript in preparation. The following applies: 28-day repeat dosing at 400 mg/kg in primates; ref manuscript in preparation; cited from earlier work.
On the set-up of data set [2]: method as in manuscript in preparation. The following applies: doses up to 1,000 mg/kg in adult rats; ref manuscript in preparation; cited from earlier work.
Data set [3] can be described thus: Formulation concentration. Type of data set: physicochemical.

SMILES strings stand for the structures. Read-outs that look alike come from different tables or passages of the source. Bounds are passed on as bounds.

Regarding `CC/C=C\C/C=C\C/C=C\C/C=C\C/C=C\C/C=C\CCC(=O)OC(COCCCCCCCCCCCCCCCC)COC(=O)CCCCC1CCSS1` (stereo not drawn) [PPI-1011, 1-O-hexadecyl-2-O-cis-4,7, 10, 13, 16, 19-docosahexaenoyl-3-O-lipoyl glycerol], the “Toxicity or adverse effects” value in data set [1] and in data set [2] was “no toxicity or adverse effects” each time. The “Concentration amenable to formulation” value in data set [3] was ≤ 500000 µg/mL.
